Results taken from patent US10301298B2, “Methods, compounds, and compositions for the treatment of angiotensin-related diseases” (University of Southern California, priority 2013, dated 2019).

Key:
[1] = system: db/db mice; test: Fasting blood glucose in db/db mice; format: in vivo
Description: Mice homozygous for the diabetes spontaneous mutation Lepr^db (BKS.Cg-Dock7^m+/+Lepr^db/J), which is an obese model of type 2 diabetes as a consequence of truncation of the leptin receptor, have verified plasma glucose levels >500 mg/dL prior to initiation of treatment. Food and water were available ad libitum, and all mice were kept on a 12-hour light/dark cycle. BKS.Cg-Dock7^m+/+Lepr^db/J mice and their heterozygous controls (n=6/group) were administered either saline (control), Ang-(1-7) (500 mcg/kg/day), or Compound 7 500 mcg/kg/day for two weeks by subcutaneous (SC) injection. Mice were fasted overnight prior to assessment of plasma glucose levels. Blood was taken from the saphenous vein and tested for glucose levels by a glucometer.

[2] = system: db/db mice; test: Bone marrow cell counts and progenitor colonies in db/db mice; format: in vivo; settings: 500 mcg/kg/day subcutaneously, 14 days
Description: The femurs and tibia were collected from db/db mice treated 500 mcg/kg/day Ang(1-7) or Compound 7 subcutaneously for 14 days were euphanized and the bone marrow were collected by flushing with PBS containing 2% fetal calf serum. After collection of the bone marrow, the red blood cells will be lysed with a hypotonic solution (described above), mixed with 0.04% trypan blue and the number of nucleated cells was assessed by hematocytometer under light microscopy. Aliquots of cells were then resuspended at 1×10^6 cells/ml (GM and GEMM, bone marrow), 1.5×10^6 cells/ml (BFU-E, bone marrow). One hundred μ1 of each suspension was added to 900 μl of semisolid medium containing 0.9% methyl cellulose in Iscove's MDM, 15% fetal calf serum, 1% bovine serum albumin, 10 μg/ml bovine pancreatic insulin, 200 μg/ml human transferrin, 10^−4 M 2-mercaptoethanol, 2 mM glutamine, 10 ng/ml recombinant murine interleukin 3, 10 ng/ml recombinant human interleukin 6, 50 ng/ml recombinant murine stem cell factor and 3 units/ml erthropoietin. This mixture was then added to duplicate wells of a 24 well plate. The cultures were then placed at 37° C. in a humidified atmosphere of 5% CO2 in air. At day 14, the number of progenitor colonies formed was enumerated under phase contrast microscopy.
The bone marrow cells were also cultured to assess the number of MSCs by a CFU—F assay. 2.5×10^5 cells/ml, 2 ml per well, were diluted into Mesencult medium (Stem Cell Technologies, Vancouver, BC, Canada) and 2 mL were placed in each well of a 24 well plate. The cultures were then incubated at 37° C. in a humidified atmosphere of 5% CO2 in air. At days 2, 5 and 8, the number of progenitor colonies formed was enumerated under phase contrast microscopy.

[3] = system: C57Bl/6 mice; test: Acute toxicity in C57Bl/6 mice; format: in vivo; settings: 500 μg/kg subcutaneous or intravenous, 7 days after treatment
Description: Compound 7 was evaluated for acute toxicity at 500 μg/kg in C57Bl/6 mice that was given as either a subcutaneous or intravenous injection, and its safety was evaluated for 7 days after treatment.

[4] = target: T1, AT1R (Homo sapiens, UniProt P30556); test: AT1R displacement assay with radiolabeled Ang II; format: binding; settings: displacement of radiolabeled Ang II or analogs; read-out: EC50 displacing Ang II at the AT1 receptor
T1 sequence (P30556 1-359): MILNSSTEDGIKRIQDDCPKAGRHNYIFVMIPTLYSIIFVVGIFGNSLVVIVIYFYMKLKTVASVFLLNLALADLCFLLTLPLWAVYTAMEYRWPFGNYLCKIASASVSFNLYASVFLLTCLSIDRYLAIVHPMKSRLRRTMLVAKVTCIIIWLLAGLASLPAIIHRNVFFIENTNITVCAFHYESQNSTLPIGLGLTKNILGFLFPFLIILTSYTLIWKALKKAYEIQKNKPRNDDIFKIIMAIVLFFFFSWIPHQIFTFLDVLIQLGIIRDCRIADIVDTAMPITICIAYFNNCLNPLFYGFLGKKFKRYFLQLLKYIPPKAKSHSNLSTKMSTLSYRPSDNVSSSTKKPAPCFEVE
Description: Compound 7 was evaluated in vitro for its ability to compete with ratholabeled Ang II or analogs in a displacement assay for AT1R and AT2R receptors.

[5] = Oral bioavailability in C57Bl/6 mice; format: in vivo; settings: 500 μg/kg, oral gavage vs intravenous
Description: Compound 7 was evaluated for oral bioavailability at 500 μg/kg in C57Bl/6 mice. The drug was given by intravenous injection or by oral gavage and blood was collected at 0.5, 1, 2, 4, 8, 24 hours into heparinized tubes. The level of drug in the blood was measured by liquid chromatograph-mass spectrometry. Bioavailability was determined using the following ratio AUCIG/AUCIV (FIG. 10).

[6] = target: T2, Mas (Homo sapiens, UniProt P04201); test: Competition binding assay, displacement of fluorescent Ang(1-7) from Mas-transfected CHO cells; parameters: concentration or dose not given beside the values; settings: CHO cells transfected with Human mas1, on ice
T2 construct: expressed in transfected cells
T2 sequence (P04201 1-325): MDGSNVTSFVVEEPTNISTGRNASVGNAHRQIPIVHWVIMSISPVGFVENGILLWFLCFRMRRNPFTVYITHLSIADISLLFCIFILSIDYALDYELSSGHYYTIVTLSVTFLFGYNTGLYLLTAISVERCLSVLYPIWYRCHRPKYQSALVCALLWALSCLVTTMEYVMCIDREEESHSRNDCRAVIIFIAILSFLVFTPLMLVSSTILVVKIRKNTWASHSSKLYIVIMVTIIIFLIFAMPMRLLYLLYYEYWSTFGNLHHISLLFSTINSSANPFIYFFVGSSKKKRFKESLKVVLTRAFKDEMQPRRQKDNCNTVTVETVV
Description: CHO cells stably transfected with recombinant Human mas1 proto-oncogen driven by the human cytomegalovirus were grown to 80% confluency. The cells were detached with trypsin and harvested by centrifugation. Cells were washed three times in progressively colder buffers. The final number of cells per assay was 5×10^5. All subsequent steps were performed on ice. Test compound was added to the cells for 10 minutes prior to addition of fluorescently labeled A(1-7). After 10 minutes further incubation, the cells were washed to remove unbound A(1-7) and the fluorescence bound was read at an excitation of 490 nm and an emission of 520 nm.

CCCCOC(=O)NS(=O)(=O)c1ccc(OC(F)(F)F)cc1-c1ccc(Cn2ccnc2)cn1 [Compound 7, butyl (2-(5-((1H-imidazol-1-yl)methyl)pyridin-2-yl)-4-(trifluoromethoxy)phenyl)sulfonylcarbamate]
reduction of peripheral glucose versus vehicle or Ang(1-7) treated mice ([1]; 500 μg/kg/day, 14 days): > 40%
reduction of FBG in terms of the excess blood glucose over non-diabetic controls ([1]; 500 mcg/kg/day SC, two weeks): 72%
fasting blood glucose (FBG) versus db/db mice treated with saline ([1]; 500 mcg/kg/day SC, two weeks, p<0.05): significantly lower
bone marrow counts [2]: increase bone marrow counts
increase in bone marrow cell number, CFU-GEMM, CFU-GM, BFU-E and MSC [2]: comparable to Ang(1-7)
bone marrow counts ([2]; listed as compound 7): increased the bone marrow counts
acute toxicity [3]: No overt signs of toxicity
EC50 [4]: > 10 µM
oral bioavailability (AUCIG/AUCIV) [5]: 30%
% Displacement [6]: 28.1%
